Experimental data: US20210052537A1, “COLITIS AMELIORATING AGENT” (ASTA PHARMACEUTICALS, CO., LTD., priority 2018, published 2021)
Where “and” joins values, the source holds several entries; their conditions need not be identical. Equal entries are not always repeated.

What was measured:
DSS-induced colitis = DSS-induced colitis mouse model (experimental ulcerative colitis); format: in vivo; settings: for Fecal scoring average value: score 0-3
Description: In this Example, mouse models to which dextran sulfate sodium salt (DSS) is used will be described as colitis models. When DSS is administered by being mixed in drinking water of the mouse, an experimental ulcerative colitis model similar to human ulcerative colitis in terms of symptoms such as suppression of body weight increase, blood in stools, and anemia and formation of colon erosion and further lacking intestinal lesion was build (Non-Patent Literature 3). A suppression effect of Compound X on colitis in such a model as the representative colitis model was examined. For the evaluation items, recovery from diarrhea and body weight loss by colitis, and the length and weight of the colon were examined as changes in colon properties, which are widely known to occur by DSS-induced colitis.
For treatment, C57BL/6J, male mice were purchased from CHARLES RIVER LABORATORIES JAPAN, INC. in accordance with previous literature (Non-Patent Literature 2) and 5-week old mice with no abnormal general conditions during quarantine and acclimation period were used for the experiment. After acclimation, the animals were divided in such a way as to be 1 mouse per cage. DSS used in the experiment having a molecular weight of from 36,000 to 50,000 Da was purchased from MP Bio Japan. DSS was added to tap water in such a way as to be 3% and suspended for causing colitis. The suspension was prepared once every 3 days and freely provided to each of the mice as water supply. A solution from which DSS was removed was provided as water supply to a non-pathological control group.
After group division, each of the test substances of Table 1 was suspended in a solution of 0.5% sodium carboxymethyl cellulose (hereinafter, CMC, Nacalai Tesque Inc.) in such a way as to be each treatment of Table 1 and orally administered once daily. […] These control groups, Groups 1 and 2, were orally administered, as the test substance, with the 0.5% CMC solution used as the medium.
Drinking water after the group division was typical water for drinking.
The test started with 6 mice in Group No. 1 and 10 mice each in Group Nos. 2 to 6.
Body weights were measured on the DSS administration starting day (day −5), DSS administration last day (day 0), on day 3, day 5, day 8, and day 10 of test substance administration.
The therapeutic effect was evaluated by observing changes in blood in stools caused by enteritis as the body weight recovery alone can be considered that the body weight increase might have been promoted simply by the growth. Mice feces were observed on the DSS administration starting day (day-5), DSS administration last day (day 0), on day 3, day 5, day 8, and day 10 of test substance administration and scored in accordance with the criteria of Table 2.
(§1) For evaluating the therapeutic effect of Compound X, the length and weight of the colon were measured. The mice were euthanized under anesthesia on day 10 of test substance administration and dissected to remove the colon. The removed colon was quickly measured for a length in a relaxed state. Subsequently, feces in the intestinal tract were removed and sufficiently washed with phosphate buffered saline (Wako Pure Chemical Industries, Ltd.) and measured for a wet weight.

Oxa-induced colitis = test: Oxazolone (Oxa)-induced colitis mouse model; format: in vivo; settings: for Colon length compared with Vehicle group / Colon wet weight compared with Vehicle group: Group Nos. 3 to 6 of Table 7, in words; for Colon length / Colon weight (wet weight per length): 6 days, day 7, mean ± SD
Excerpt: In this Example, mouse models to which oxazolone (4-ethoxymethylene-2-phenyl-2-oxazolin-5-on, hereinafter, Oxa) is used will be described as colitis models. When Oxa was first applied to skin, subsequently administered enterally after a certain period of time, an experimental ulcerative colitis model similar to human ulcerative colitis in terms of not only symptoms such as suppression of body weight increase, blood in stools, and anemia and formation of colon erosion but also immune cells was built (Non-Patent Literature 4). A suppression effect of Compound X on colitis in such a model as the test model showing pathological conditions more similar to human ulcerative colitis was examined. For the examination items, the length and weight of the colon were examined as changes in colon properties are widely known to occur also in this model.
For treatment, Balb/c, male mice were purchased from CHARLES RIVER LABORATORIES JAPAN, INC. in accordance with previous literature (Non-Patent Literature 5) and 8-week old mice with no abnormal general conditions during quarantine and acclimation period were used for the experiment. After acclimation, the animals were divided in such a way as to be 1 mouse per cage. Oxa used in the experiment was purchased from Sigma.
Fur at back of the neck was shaved in an area of 1.5×1.5 cm under anesthesia, and 150 μL (a 100% ethanol solution) of 3% (wt/vol) Oxa was added using a pipette and applied between the shoulders to sensitize (Day 1). The mice were kept under such a typical breeding environment, fasted for 16 hours from Day 7 (water supply was continued), and subsequently on Day 8 100 μL of a solution of 1% (wt/vol) Oxa in 50% ethanol was transanally administered into the rectum (3.5 cm from the anus) using a catheter under anesthesia. Hereinafter, the above treatment is described as Oxa treatment. After treatment, typical feeding breeding was carried out.
Starting on the day following intrarectal administration of Oxa, test substances were orally administered (once daily, for 6 days). 5-Aminosalicylic acid (hereinafter 5-ASA, Tokyo Chemical Industry, Co., Ltd.) and prednisolone (hereinafter, PSL, Sigma), which are anti-inflammatory agents used for treating ulcerative colitis, were used as positive controls for the test. After group division, each of the test substances of Table 6 was suspended in a solution of 0.5% sodium carboxymethyl cellulose (hereinafter, CMC, Nacalai Tesque Inc.) in such a way as to be each treatment of Table 6 and orally administered once daily. […] These control groups, Groups 1 and 2, were orally administered, as the test substance, with the 0.5% CMC solution which was used as the medium.
The test started with 6 mice in Group No. 1 and 9 mice each in Group Nos. 2 to 6. After the treatment started, death of animals in Group Nos. 2 to 6 due to the cause considered enteritis from Oxa treatment was observed and thus 6 mice in Group Nos. 1 and 3, and 5 mice in Group Nos. 2 and 6, and 7 mice in Group Nos. 4 and 5 were finally used for analysis.
as §1, with “It is generally acknowledged as a known fact that Oxa treatment causes colon tissue changes such as the length of colon is shortened while the weight increases. For” for “For”, “7” for “10”, “Oxa treatment” for “test substance administration”

[1] = DSS + 50 mg/kg/day oral, day 3, mean ± SD
[2] = DSS + 50 mg/kg/day oral, day 5, mean ± SD
[3] = Oxa treatment + 50 mg/kg/day oral, 50 mg/kg/day
[4] = Oxa treatment + 5 mg/kg/day oral, 5 mg/kg/day

Structure (SMILES) | Body weight recovery compared with the DSS administration only (DSS-induced colitis; 50 mg/kg/day oral, in words) | Time-dependent changes in blood feces score versus DSS administration group (DSS-induced colitis; 50 mg/kg/day oral, in words) | Fecal scoring average value (DSS-induced colitis; DSS + 50 mg/kg/day oral, day 0 (DSS last day), mean ± SD) | Body weight (DSS-induced colitis; [1]) [g] | Fecal scoring average value (DSS-induced colitis; [1]) | Body weight (DSS-induced colitis; [2]) [g] | Fecal scoring average value (DSS-induced colitis; [2]) | Fecal scoring average value (DSS-induced colitis; DSS + 50 mg/kg/day oral, day 8, mean ± SD) | Colon length (DSS-induced colitis; DSS + 50 mg/kg/day oral, day 10, mean ± SD, 50 mg/kg/day) | Fecal scoring average value (DSS-induced colitis; DSS + 50 mg/kg/day oral, day 10, mean ± SD) | Fecal scoring average value (DSS-induced colitis; DSS + 50 mg/kg/day oral, day −5 (before test substance), mean ± SD) | Colon length compared with DSS group (DSS-induced colitis; Group Nos. 3 to 5 (1, 10, 100 mg/kg/day) and Group No. 6 (50 mg/kg/day), in words) | Colon wet weight compared with DSS group (DSS-induced colitis; all treated groups of Table 5, in words) | Colon length compared with Vehicle group (Oxa-induced colitis) | Colon wet weight compared with Vehicle group (Oxa-induced colitis) | Colon length (Oxa-induced colitis; [3]) | Colon weight (wet weight per length) (Oxa-induced colitis; [3]) | Colon length (Oxa-induced colitis; [4]) | Colon weight (wet weight per length) (Oxa-induced colitis; [4])
Nc1ccc(O)c(C(=O)O)c1 [Compound 5-ASA, 5-Aminosalicylic acid, reference compound] | significant body weight recovery | did not have a difference | 1.0 ± 0.0 | 15.5 ± 1.0 | 1.5 ± 0.5 | 16.4 ± 1.7 | 1.8 ± 1.0 | 0.0 ± 0.0 | 6.54 cm and 6.54 ± 0.29 cm | 0.0 ± 0.0 | 0.0 ± 0.0 | longer length of the colon than DSS group | suppressed weight increases compared with DSS group | longer length of the colon than Vehicle group | suppressed weight increases compared with Vehicle group | 7.41 cm and 7.41 ± 0.37 cm | 4.12 mg/mm and 4.12 ± 0.56 mg/mm | – | –
C[C@]12C=CC(=O)C=C1CC[C@@H]1[C@@H]2[C@@H](O)C[C@@]2(C)[C@H]1CC[C@]2(O)C(=O)CO [PSL, prednisolone] | – | – | – | – | – | – | – | – | – | – | – | – | – | longer length of the colon than Vehicle group | suppressed weight increases compared with Vehicle group | – | – | 8.20 cm and 8.20 ± 0.52 cm | 3.37 mg/mm and 3.37 ± 0.36 mg/mm
